Consider ten compounds from US9993492B2, “Lysophospholipids and lysophospholipid analogues against honeybee brood diseases” (University of Graz, priority 2013, dated 2018).

Usually MIC stands for the least concentration at which growth counts as inhibited.

In one data set the test system is Melissococcus plutonius. As to the kind of experiment: Antimicrobial assay in liquid Basal Medium against Melissococcus plutonius (MIC). The class given is cell-based. Conditions: for MIC / MIC (ppm): M. pl. in BM liquid medium, OE at 600 nm after 5 days; for inhibitory / antibacterial activity against M. pl. (in words): in vitro. As to the method: M. pl. was cultured in liquid Basal Medium (BM) for 4 days at 35° C. and from here serial dilutions were carried out to estimate CFU/ml by plating onto BM agar plates. 5 days later CFU were count and concentration was estimated to be 3.46*10^6 CFU/ml. For the antimicrobial assay, an inoculum of 50 μl of the liquid culture is added to 1 mL of BM liquid medium. A set of different substances were tested in different concentrations (2, 5 and 10 ppm) in order to find out their inhibitory effect against M. pl growth. For substances tested, concentration applied and results see table 1.2. Three replicates per substance were included in the experiment. 5 days after the experiment was started OE (optical extinction) was measured at 600 nm.

For a further data set, the system named is Paenibacillus larvae. In words: Antimicrobial assay in BHI liquid medium, vegetative forms of Paenibacillus larvae (MIC). It counts as cell-based. Conditions: for MIC / MIC (ppm): vegetative forms of Pl, liquid medium; for inhibitory / antibacterial activity against Pl (in words): in vitro. How it is done: For the evaluation of certain fatty acids and phospholipids, overnight cultures of vegetative forms of Pl were used (for results see Table 1.1).
(§1) As test organisms, several different strains of Paenibacillus larvae were used.
(§2) Overnight cultures of the vegetative forms of bacteria were prepared in BHI (brain heart infusion) liquid medium.
From these overnight cultures, an inoculum of 50 μl is added to 1.0 ml of BHI liquid medium to perform the bacterial test in liquid medium. The compound 1-O-oleoyl-sn-glycero-3-phosphocholine (oleoyl-LPC) together with a positive control was then added at concentrations of 2, 5 and 10 ppm and the test tubes were incubated for 24 h at 34.5° C. Then, the extinction of the solution was measured photometrically.

The next data set deals with honeybee larvae. The class given is in vivo. The note with it: for toxicity to honeybee larvae (footnote b): in vivo; for Ndead larvae total: days 1-7. As to the method: First instar larvae were transferred into plastic queen cups and fed the following diets: On the first day 10 μL of diet containing 6% glucose, 6% fructose, 1% yeast extract and 50% royal jelly were fed. Test substances (1-O-oleoyl-sn-glycero-3-phosphocholine (oleoyl-LPC), stearic acid, lysophosphatidylinositol and linoleic acid) were added to the first diet in amounts of 0.5 to 10 μg/larvae. For infection with spores of Paenibacillus larvae, larvae were grafted into 5 μL of diet containing test substances and subsequently 5 μL of diet with about 50 added Pl spores were given. Larvae were not fed on the second day to assure the consumption of the given diet. On the third day 20 μL of diet containing 7.5% glucose, 7.5% fructose, 1.5% yeast extract and 50% royal jelly were fed. Amounts of 30, 40 and 60 μL of diet composed of 9% glucose, 9% fructose, 2% yeast extract and 50% royal jelly were fed on the 4th, 5th and 6th day (method modified after Aupinel et al. [Aupinel et al. 2005. Bull Insectol 58:107-111]. Larvae were incubated at 34.5° C. and 95% relative humidity which was reduced to 80% on day 7. The mortality was checked daily for the first 7 days and when individuals emerged from queen cups at day 18 after the transfer into cups. To reduce the time for sporulation of Pl in the lab for security reasons, infection tests with Pl spores were stopped at day 7 with some experiments extend to day 12.
Larvae were fed according to a slightly modified rearing method of Aupinel et al., (2005). Larvae were fed for 6 days with different amounts of diets which always contained 50% of an aqueous solution (A, B, C) and 50% royal jelly (w/w). The solutions consisted of yeast extract (A=2%, B=3%, C=4%), glucose and fructose (A=12%, B=15%, C=18% each). 50 g portions of royal jelly (purchased from the Styrian school of beekeepers) were freeze stored at −20° C. Once a day all components of the needed diet were mixed freshly, warmed and fed to the larvae with a micro-pipette. On day 1 and 2 each larva was fed with 10 μL of diet A, on day three with 20 μL of diet B, on day four (30 μL), five (40 μL) and six (50 μL) with diet C. This way, each larva was supported with a total amount of 160 μL of food. The test compounds (see Table 4) were added each at the respective concentration on day 1, i.e. stearic acid (10 μg/larva), lysophosphatidylinositol (5 μg/larva), linoleic acid (12 μg/larva) and oleyol-LPC (10 μg/larva). Each larva was checked for its state of health under the binocular before feeding. A larva was defined healthy when movements of spiracles could be observed and it was shiny and plump. Cups with dead larvae were removed from the plate to prevent infections. To avoid microbial contamination, feeding took place under a laminar flow. Larvae were incubated at 34.5° C. and 90% RH. The mortality rates of the larvae are given below in table 4.1.

Data set [1] concerns spores of Paenibacillus larvae. In words: Spore assay in BHI liquid medium with plating for CFU. The class given is cell-based. Conditions: lowest investigated dose (5 ppm); 114.6±28.4 spores per vial; 4 and 6 days. As to the method: A stock solution containing spores at a known concentration is used to inoculate c. 100 spores/mL medium. This assay is carried out in 20 mL cultivation tubes containing 1.0 mL of BHI (brain heart infusion) liquid medium. To this medium containing c. […] spores, test compounds are added at different concentrations (e.g., 2, 5 and 10 ppm), together with positive control (penicillin G at 5 ppm) and blank control.
To verify inoculation with c. 100 spores/mL, tubes containing BHI+spores are plated out immediately on agar plates to assess the number of colony forming units (CFU) after 6 days of incubation at 34.5° C.
For the control of viability of the spores, the turbidity (due to germination of spores and formation of vegetative forms) of tubes containing BHI+spores is evaluated on day 4.
For the test probes, bacterial growth is evaluated on day 4 and 6. For those tubes which are negative for bacterial growth, the whole medium (c. 1 mL) is plated onto agar plates and evaluated for CFUs after 2 and 6 days of incubation. CFUs visible after two days result from vegetative forms, while CFUs appearing after […] stem from spores.
The results of these tests allow identifying whether the tested compounds have an effect on spore germination in liquid medium and the viability of the spores as assessed by their germination on agar plates. […]

Data set [2] deals with Paenibacillus larvae (Eric II test strain). As to the kind of experiment: Inhibition zone test on Columbia agar. It counts as cell-based. Conditions: amount 30 μg; 24 h, 34.5° C. As to the method: as §1, §2
For the inhibition zone test, 500 μL of overnight culture were added to 15-20 mL of Columbia agar, mixed and poured onto a petri dish. After the agar solidified, either punched wholes are filled with different amounts of test compounds or test compounds are pipetted on paper discs (5 mm Ø). The plate is then incubated for 24 h (34.5° C.) and zones of inhibition are measured and given in mm. Lactic acid and penicillin G were used as positive controls.
E II—Eric II (test strain of Pl)

Where [3] appears, read: Melissococcus plutonius, 120 h, read-out: MIC.
The mark [4] stands for this setting: Melissococcus plutonius, 120 h, read-out: MIC (ppm).
Where [5] appears, read: Paenibacillus larvae, 24 h, read-out: MIC (ppm).
Where [6] appears, read: Paenibacillus larvae, read-out: MIC.
Where [7] appears, read: linoleic acid 12 μg/larva added on day 1, Nlarvae 48.
Setting [8] is: LPI 5 μg/larva added on day 1, Nlarvae 96.
The mark [9] stands for this setting: stearic acid 10 μg/larva added on day 1, Nlarvae 96.

Where two headings read alike, the source gives them in different places.

With `CCCCC/C=C\C/C=C\CCCCCCCC(=O)O` [linoleic acid], the MIC in the data set with Melissococcus plutonius (setting [3]) stood at 3.6 µM. Moreover, the minimal inhibitory concentration (MIC) with Melissococcus plutonius (setting [4]) came to 1 µg/mL. Moreover, the MIC in the data set on Paenibacillus larvae (setting [5]) is 0.5 µg/mL. In the data set on Paenibacillus larvae (setting [6]), the minimal inhibitory concentration (MIC) is 1.8 µM. The “toxicity to honeybee larvae (footnote b)” value with honeybee larvae is listed as “^btoxic to honeybee larvae”. Besides, in the data set on honeybee larvae (setting [7]), the “Ndead larvae day 1” value is recorded as 0, the “Ndead larvae day 2” value stood at 18, the “Ndead larvae day 3” value turned out to be 2 and the “Ndead larvae day 4” value came to 3. In the data set on honeybee larvae (setting [7]), the “Ndead larvae day 5” value was 1, the “Ndead larvae day 6” value is listed as 1, the “Ndead larvae day 7” value worked out at 1 and the Ndead larvae total is 26.

For the compound lysophosphatidylcholine, the “MIC (ppm)” value with Melissococcus plutonius and in the data set with Paenibacillus larvae was 2-5 ppm in each case. In addition, in the data set with honeybee larvae (single dose fed on day one, up to 1-2% of fresh body weight of larvae younger than one day, assessed on day 7), the “larval mortality compared with control group” value was “no higher mortality than found in the control group”.

On to `CCCCCCCCCCCCCCCCCCOP(=O)([O-])OC1CC[N+](C)(C)CC1` [perifosine, 1,1-dimethylpiperidinium-4-yl octadecyl phosphate], for which the MIC with Melissococcus plutonius (setting [3]) is 4.3 µM; in the data set on Melissococcus plutonius (setting [4]), 2 µg/mL; in the data set with Paenibacillus larvae (setting [5]) it was 2 µg/mL; with Paenibacillus larvae (setting [6]) it was 4.3 µM. The “inhibitory / antibacterial activity against M. pl. (in words)” value in the data set with Melissococcus plutonius was “good in vitro Pl and M. pl. inhibitory activity”. Also, the “inhibitory / antibacterial activity against Pl (in words)” value in the data set on Paenibacillus larvae was “good in vitro Pl and M. pl. inhibitory activity”.

For `CCCCCCCCCCCCCCCCCC(=O)OC[C@@H](O)COP(=O)([O-])OCC[N+](C)(C)C` [1-O-stearoyl-sn-glycero-3-phosphocholine], the MIC in the data set with Melissococcus plutonius (setting [3]) is above 5.7 µM; in the data set on Melissococcus plutonius (setting [4]), 3 µg/mL; with Paenibacillus larvae (setting [5]) it was 5 µg/mL; with Paenibacillus larvae (setting [6]), above 9.5 µM. Further, the “inhibitory / antibacterial activity against Pl (in words)” value with Paenibacillus larvae is “good in vitro Pl inhibitory activity”.

In the case of `CCCCCCCC/C=C\CCCCCCCC(=O)O` [oleic acid], the MIC with Melissococcus plutonius (setting [3]) was 3.5 µM; with Melissococcus plutonius (setting [4]), 1 µg/mL; in the data set on Paenibacillus larvae (setting [5]), 1 µg/mL; in the data set with Paenibacillus larvae (setting [6]), 3.5 µM. Further, the “toxicity to honeybee larvae (footnote b)” value in the data set on honeybee larvae is on record as “^btoxic to honeybee larvae”.

As for `CCCCCCCCCCCCCCCCOP(=O)([O-])OCC[N+](C)(C)C` [miltefosine, hexadecylphosphocholine], the MIC is 4.9 µM with Melissococcus plutonius (setting [3]), 2 µg/mL in the data set on Melissococcus plutonius (setting [4]), 2 to 5 µg/mL with Paenibacillus larvae (setting [5]) and 7.4 µM in the data set with Paenibacillus larvae (setting [6]). Also, in the data set on Melissococcus plutonius, the “inhibitory / antibacterial activity against M. pl. (in words)” value was “good in vitro Pl and M. pl. inhibitory activity”. Also, the “killing of vegetative forms upon germination of spores” value in data set [1] is “all vegetative forms are killed”. In addition, in the data set on Paenibacillus larvae, the “inhibitory / antibacterial activity against Pl (in words)” value was “good in vitro Pl and M. pl. inhibitory activity”.

Regarding `CC(O)C(=O)O` (stereo not shown) [LA (C+), lactic acid], the “Inhibition zone (mm)” value in data set [2] was 5 mm.

Consider L-α-lysophosphatidylinositol, for which, in the data set with Melissococcus plutonius, the “MIC (ppm)” value is above 10 ppm and the “inhibitory / antibacterial activity against M. pl. (in words)” value is recorded as “did not show significant inhibitory activity”. Also, the MIC in the data set with Melissococcus plutonius (read-out: MIC) is given as above 15 µM. Besides, in the data set with Paenibacillus larvae, the “inhibitory / antibacterial activity against Pl (in words)” value is “did not show significant inhibitory activity” and the “MIC (ppm)” value is above 50 ppm. Moreover, the MIC with Paenibacillus larvae (read-out: MIC) is recorded as above 80 µM. In the data set with honeybee larvae (setting [8]), the “Ndead larvae day 1” value worked out at 0, the “Ndead larvae day 2” value is reported as 0, the “Ndead larvae day 3” value came to 0 and the “Ndead larvae day 4” value was 0. Also, in the data set with honeybee larvae (setting [8]), the “Ndead larvae day 5” value was 1, the “Ndead larvae day 6” value was found to be 1, the “Ndead larvae day 7” value was 2 and the Ndead larvae total is listed as 4.

For `CCCCCCCCCCCCCCCC(=O)O` [palmitic acid], the MIC in the data set with Melissococcus plutonius (setting [3]) was above 40 µM; in the data set with Melissococcus plutonius (setting [4]), above 15 µg/mL; in the data set with Paenibacillus larvae (setting [5]), above 20 µg/mL; in the data set with Paenibacillus larvae (setting [6]), above 78 µM.

With `CCCCCCCCCCCCCCCCCC(=O)O` [stearic acid], in the data set on Melissococcus plutonius (setting [3]), the MIC was above 35 µM. Further, the MIC in the data set on Melissococcus plutonius (setting [4]) was above 10 µg/mL. Moreover, the minimum inhibitory concentration (MIC) in the data set on Paenibacillus larvae (setting [5]) was above 20 µg/mL. In the data set with Paenibacillus larvae (setting [6]), the MIC was above 70 µM. Moreover, in the data set on honeybee larvae (setting [9]), the “Ndead larvae day 1” value stood at 0, the “Ndead larvae day 2” value is given as 0, the “Ndead larvae day 3” value was 1 and the “Ndead larvae day 4” value is recorded as 0. In the data set with honeybee larvae (setting [9]), the “Ndead larvae day 5” value is reported as 1, the “Ndead larvae day 6” value is reported as 3, the “Ndead larvae day 7” value worked out at 1 and the Ndead larvae total came out at 6.
